Assay results from publication PMC9774939, “Optimization of Pyrazole Compounds as Antibiotic Adjuvants Active against Colistin- and Carbapenem-Resistant Acinetobacter baumannii” (Antibiotics, 2022).
Like-named read-outs stand apart in the source and are kept apart here.

Columns and labels:
[1] = tested on: eight reference strains, Gram-positive and Gram-negative; set-up: method as in PMID 32435403; conditions: parent compound; cited from earlier work
K. pneumoniae SI-004Bo = test: Chequerboard analysis with colistin; assay type: cell-based, Klebsiella pneumoniae; conditions: combination with colistin; pandrug-resistant, colistin-resistant isolate
Excerpt: (§1) Carbapenem-resistant, colistin-resistant, and XDR clinical isolates were kindly provided by Prof. Gian Maria Rossolini (University of Florence, Italy). Klebsiella pneumoniae SI-004Bo is a KPC-producing, pandrug-resistant isolate (KKBO-4 [17]) selected in vivo during colistin therapy (colistin resistance mechanism, IS-mediated insertional inactivation of mgrB). Acinetobacter baumannii N50 is an OXA-24-producing clinical isolate resistant to all β-lactams, aminoglycosides, and fluoroquinolones.
(§2) The chequerboard analysis is a two-dimensional array in which individual microplate wells contain a unique combination of the concentrations of the tested compound and colistin. Tested concentrations of the compound ranged from 64 to 0.06 μg/mL along the x-axis, whereas polymyxin E1 concentrations ranged from 2 to 0.03 μg/mL (or 32–0.5 μg/mL when polymyxin E1-resistant clinical isolates were used) and varied along the y-axis. Determining the fractional inhibitory concentration (FIC) of both compounds and computing the average FIC index allowed us to determine whether a synergistic, additive, or antagonistic activity between the tested compounds could be observed. A synergistic activity occurred when the average FIC index was equal to or less than 0.5 [21, 27].

E. coli CCUG^T = test: Chequerboard analysis with colistin; assay type: cell-based, Escherichia coli; conditions: combination with colistin; synergy when ≤0.5
Method: as §2

K. pneumoniae ATCC 13833 = test: Chequerboard analysis with colistin; assay type: cell-based, Klebsiella pneumoniae; conditions: combination with colistin; synergy when ≤0.5
Method: as §2

[2] = tested on: Klebsiella pneumoniae ATCC 13833; set-up: method as in PMID 32435403; conditions: parent compounds, cited from earlier work; for MAC Kpn: in the presence of 0.5 × MIC colistin; for MIC/MAC Ratio Kpn: minimal ratio
Hemolytic activity = assay type: cell-based; conditions: 0.025–10 μg of compound
Method: The hemolytic activity of compounds 1, 2, 8, 9, 45, and 49 (0.025–10 μg) was investigated using the method described by Bechlars et al.. Triton X-100 was used as the hemolysis control and DMSO as the negative control.

A. baumannii ATCC 17978 = test: Chequerboard analysis with colistin; assay type: cell-based, Acinetobacter baumannii; conditions: combination with colistin; synergy when ≤0.5
Method: as §2

[3] = tested on: Acinetobacter baumannii ATCC 17978; set-up: method as in PMID 32435403; conditions: parent compounds, cited from earlier work; for MAC Aba: in the presence of 0.5 × MIC colistin; for MIC/MAC Ratio Aba: minimal ratio
Escherichia coli CCUG^T [4] = tested on: Escherichia coli CCUG^T; set-up: method as in PMID 32435403; conditions: parent compounds, cited from earlier work; for MAC Eco: in the presence of 0.5 × MIC colistin; for MIC/MAC Ratio Eco: minimal ratio
A. baumannii N50 = test: Chequerboard analysis with colistin; assay type: cell-based, Acinetobacter baumannii; conditions: combination with colistin; MDR, colistin-resistant isolate
Excerpt: as §1, §2

[5] = tested on: Acinetobacter baumannii ATCC 17978; test: MAC determination in the presence of subinhibitory colistin; assay type: cell-based; conditions: for MAC Aba: in the presence of 0.5 × MIC colistin; for MIC/MAC Ratio Aba: minimal ratio of MIC of compound alone to MAC with 0.5 × MIC colistin
Method: (§3) The minimum inhibitory concentration (MIC) and minimum bactericidal concentration (MBC) of the compounds were determined in triplicate using Mueller–Hinton broth and a bacterial inoculum of 5 × 10^5 CFU/mL, as recommended by the CLSI [26]. The minimum antibacterial concentration (MAC) of the compounds was determined in the presence of a fixed and subinhibitory concentration of colistin (as mentioned above).

Escherichia coli CCUG^T [6] = test: as above; assay type: cell-based; conditions: for MAC Eco: in the presence of 0.5 × MIC colistin; for MIC/MAC Ratio Eco: minimal ratio of MIC of compound alone to MAC with 0.5 × MIC colistin
Method: as §3

[7] = tested on: Klebsiella pneumoniae ATCC 13833; test: as above; assay type: cell-based; set-up: key to MAC Kpn: -: No synergistic activity; conditions: for MAC Kpn: in the presence of 0.5 × MIC colistin
Method: as §3

[8] = Membrane integrity assay (LDH release); assay type: cell-based; conditions: human, HeLa cells; tested alone, 24 h exposure; read-out: IC50 cytotoxicity (membrane-damaging activity, LDH release)
Method: The potential cytotoxic activity of compounds was evaluated using the commercially available integrity assay (CytoTox 96® non-radioactive cytotoxicity assay, Promega). The compounds were tested for their ability to induce the lysis of HeLa cells by measuring the release of lactate dehydrogenase (LDH) after incubating the HeLa cell cultures (20,000 cells/well) for 24 h (37 °C, 5% CO2) in DMEM (Dulbecco’s Modified Eagle Medium) supplemented with 10% fetal bovine serum, 4.5 mg/mL glucose, and 2 mM L-glutamine in the absence and presence of varying concentrations of the compounds (up to 256 µg/mL). Further controls included samples containing the medium only or in which cell lysis was induced by the addition of 9% Triton X-100 (maximum LDH release control). The percentage of cytotoxicity was computed as 100 × (sample LDH release)/(maximum LDH release). The variation of the percentage of cytotoxicity allowed us to compute an IC50 value (compound concentration inducing 50% cytotoxicity).

[9] = tested on: Acinetobacter baumannii N50; test: MBC determination in the presence of colistin; assay type: cell-based; conditions: in the presence of 2 µg/mL of colistin
Method: as §3

HeLa cells = test: Cell viability and proliferation assay (RealTime-Glo MT); assay type: cell-based; conditions: 16 µg/mL of compound, up to 72 h
Method: The cytotoxicity of the compounds was also evaluated by measuring the number of viable cells in the culture with respect to the control culture (cells treated with DMSO only) using the RealTime-Glo™ MT Cell Viability Assay in the presence of varying concentrations of the compound. The assay is a nonlytic homogeneous, bioluminescent method that can be used to measure cell viability/proliferation in real time using NanoLuc® luciferase and a cell-permeant prosubstrate (MT Cell Viability Substrate). […]

[10] = tested on: Acinetobacter baumannii N50; test: Time-kill curve analysis; assay type: cell-based
Method: The time-dependent bacterial killing of colistin, compound 9, or a combination thereof was investigated using established methods. Briefly, a culture medium containing a starting inoculum of 5.0 × 10^6 CFU/mL of Acinetobacter baumannii N50 clinical isolate was incubated aerobically at 35 °C under orbital agitation (200 rpm) in Mueller–Hinton broth, in the absence (growth control) or presence of either 2 μg/mL of colistin (a concentration equivalent to the susceptibility breakpoint), 8 µg/mL of compound 9, or both. The bacterial count (expressed in CFU/mL) in the control and antibiotic-containing media was determined every hour for up to 6 h of incubation via serial 10-fold dilution and direct plating of 0.1 mL of the sample on the Mueller–Hinton Agar medium (without antibiotic), which was incubated for 24 h at 35 °C.

In the case of `O=C(NCc1ccc2c(c1)OCO2)c1cnn(-c2ccccc2)c1-n1cccc1` [Compound 1], the direct antibacterial activity [1] is listed as “no direct antibacterial activity was observed”, the “Average FIC Index” value (K. pneumoniae SI-004Bo) is listed as 1 and the “Average FIC Index” value (E. coli CCUG^T) is listed as 0.5. For the same compound, the “Average FIC Index” value (K. pneumoniae ATCC 13833) was 0.5, the “MAC Kpn” value [2] was 64 µg/mL and the “MIC/MAC Ratio Kpn” value [2] was 8. The hemolytic activity (Hemolytic activity) was “no hemolytic activity could be observed”, the “Average FIC Index” value (A. baumannii ATCC 17978) was 0.38 and the “MAC Aba” value [3] was 32 µg/mL. The “MIC/MAC Ratio Aba” value [3] was 16, the “MAC Eco” value (Escherichia coli CCUG^T [4]) was 64 µg/mL and the “MIC/MAC Ratio Eco” value (Escherichia coli CCUG^T [4]) was 8. For the same compound, the “Average FIC Index” value (A. baumannii N50) was 0.5.

For `Cc1c(C(=O)N(C)CCN(C)C)nn(-c2ccc(Cl)cc2)c1-n1cccc1` [Compound 2], the “Average FIC Index” value (K. pneumoniae SI-004Bo) was 1, the “Average FIC Index” value (E. coli CCUG^T) was 0.31 and the “Average FIC Index” value (K. pneumoniae ATCC 13833) was 0.5. The “MAC Kpn” value [2] was 32 µg/mL, the “MIC/MAC Ratio Kpn” value [2] was 16 and the hemolytic activity (Hemolytic activity) was “no hemolytic activity could be observed”. For the same compound, the “Average FIC Index” value (A. baumannii ATCC 17978) was 0.39, the “MAC Aba” value [3] was 16 µg/mL and the “MIC/MAC Ratio Aba” value [3] was 32. The “MAC Eco” value (Escherichia coli CCUG^T [4]) was 64 µg/mL, the “MIC/MAC Ratio Eco” value (Escherichia coli CCUG^T [4]) was 8 and the “Average FIC Index” value (A. baumannii N50) was 0.4.

In the case of `O=C(NC12CC3CC(CC(C3)C1)C2)c1cnn(-c2ccccc2)c1-n1cccc1` [Compound 8, N-(Adamantan-1-yl)-1-phenyl-5-(1H-pyrrol-1-yl)-1H-pyrazole-4-carboxamide], the “Average FIC Index” value (K. pneumoniae SI-004Bo) is reported as 1, the melting point is reported as 167 to 169 °C and the “Average FIC Index” value (E. coli CCUG^T) is reported as 0.38. The “Average FIC Index” value (K. pneumoniae ATCC 13833) was 0.5, the “MAC Aba” value [5] was 4 µg/mL and the “MIC/MAC Ratio Aba” value [5] was 128. The “MAC Eco” value (Escherichia coli CCUG^T [6]) was 32 µg/mL, the “MIC/MAC Ratio Eco” value (Escherichia coli CCUG^T [6]) was 16 and the “MAC Kpn” value [7] was “- ^a”. The hemolytic activity (Hemolytic activity) was “no hemolytic activity could be observed”, the “Average FIC Index” value (A. baumannii ATCC 17978) was 0.31 and the IC50 at 24 h [8] was greater than 256 µg/mL. For the same compound, the “Average FIC Index” value (A. baumannii N50) was 0.24 and the MBC [9] was greater than 64 µg/mL.

In the case of `CC(C)(C)OC(=O)[C@H](Cc1ccccc1)NC(=O)c1cnn(-c2ccccc2)c1-n1cccc1` [Compound 9, tert-Butyl (S)-3-Phenyl-2-[[[1-phenyl-5-(1H-pyrrol-1-yl)-1H-pyrazol-4-yl]carbonyl]amino]propanoate], the “Average FIC Index” value (K. pneumoniae SI-004Bo) is reported as 1, the “Average FIC Index” value (E. coli CCUG^T) is reported as 0.33 and the “Average FIC Index” value (K. pneumoniae ATCC 13833) is reported as 0.32. The “MAC Aba” value [5] was 4 µg/mL, the “MIC/MAC Ratio Aba” value [5] was 128 and the “MAC Eco” value (Escherichia coli CCUG^T [6]) was 8 µg/mL. For the same compound, the “MIC/MAC Ratio Eco” value (Escherichia coli CCUG^T [6]) was 64, the “MAC Kpn” value [7] was 8 µg/mL and the “MIC/MAC Ratio Kpn” value ([7]; minimal ratio of MIC of compound alone to MAC with 0.5 × MIC colistin) was 64. The “proliferation of HeLa cells” value (HeLa cells) was “not significantly altered”, the hemolytic activity (Hemolytic activity) was “no hemolytic activity could be observed” and the “Average FIC Index” value (A. baumannii ATCC 17978) was 0.34. The “reduction of bacterial population (time-kill)” value ([10]; 2 µg/mL of colistin and 8 µg/mL of 9, within 5 h) was 4 log10, the “antibacterial activity alone (time-kill)” value ([10]; 8 µg/mL of 9 alone) was “does not exhibit antibacterial activity” and the “Average FIC Index” value (A. baumannii N50) was 0.23. It also gave an MBC [9] greater than 64 µg/mL.

With Colistin [reference compound] the “bactericidal effect (time-kill)” value ([10]; colistin alone at 2 µg/mL) was “not expectedly able to show any bactericidal effect”.
